# Data published in patent publication US20180214395A1 (priority 2017, published 2018).
# Where “and” joins values, the source holds several entries; their conditions need not be identical. Equal values may be shown once. Entries after “also recorded” stand apart in the source; their conditions may differ. Read-outs that look alike come from different tables or passages of the source.
# Experiments:
# [1] = Female urine sniffing test (FUST); format: in vivo; settings: rat; 24 hr after single dose; ketamine 10 mg/kg ip, d-methadone 20 mg/kg sc
# [2] = clinical; settings: both, human, in vivo
# [3] = in vivo
# [4] = Locomotor activity assessment (distance traveled, rearing); format: in vivo, rat; settings: for Distance traveled min 1-5, Mean / Rearing min 1-5, Mean / Total Distance Traveled, Mean / Total Rearing, Mean: 24 hours prior to testing; for Total Rearing, Mean: 60 minute test
# [5] = Modified Mini Mental State (3MS) in patients with chronic cancer pain (phase I-2a study); format: in vivo, human; settings: 40 mg every 12 hours for 12 days
# [6] = Serum glucose (colorimetric kit) in MAD 25 mg subjects; format: in vivo, human; settings: 25 mg per day for 10 days; for Mean serum glucose change vs baseline: six treated subjects; for serum glucose, individual subjects: hydrochloride
# [7] = Single ascending dose (SAD) study in healthy volunteers: pharmacokinetics of d-methadone; settings: both, human, in vivo
# [8] = both, human, in vivo
# [9] = biological target: serotonin transporter (SERT or 5-HT) (Rattus norvegicus, UniProt P31652); assay: biochemical
# Chain of serotonin transporter (SERT or 5-HT) (P31652 whole entry): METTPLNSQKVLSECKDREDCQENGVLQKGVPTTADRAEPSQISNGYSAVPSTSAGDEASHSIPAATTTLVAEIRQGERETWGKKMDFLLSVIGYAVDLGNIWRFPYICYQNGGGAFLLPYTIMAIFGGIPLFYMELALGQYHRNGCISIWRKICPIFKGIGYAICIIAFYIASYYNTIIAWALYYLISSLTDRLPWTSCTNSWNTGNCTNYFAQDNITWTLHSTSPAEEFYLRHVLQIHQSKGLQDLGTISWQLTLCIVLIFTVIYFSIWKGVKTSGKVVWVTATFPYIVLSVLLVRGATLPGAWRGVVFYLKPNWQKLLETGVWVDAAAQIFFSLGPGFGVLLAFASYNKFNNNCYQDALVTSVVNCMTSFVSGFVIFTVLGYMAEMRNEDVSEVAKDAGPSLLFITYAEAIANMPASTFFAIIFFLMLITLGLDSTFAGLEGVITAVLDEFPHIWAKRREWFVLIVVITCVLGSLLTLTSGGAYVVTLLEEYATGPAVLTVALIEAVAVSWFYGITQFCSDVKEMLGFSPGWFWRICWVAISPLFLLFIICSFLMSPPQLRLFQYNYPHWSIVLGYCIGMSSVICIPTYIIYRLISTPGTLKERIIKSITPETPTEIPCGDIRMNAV
# [10] = Body weight gain in rats (chronic constrictive nerve injury model experiment); format: in vivo; settings: rat
# [11] = MAD study: pupillary constriction; format: in vivo, human; settings: mean (SD)
# [12] = in vivo; remark: listed apart in the source
# [13] = biological target: T1, norepinephrine transporter (NET) (Rattus norvegicus, UniProt Q63380); assay: Norepinephrine uptake assay; format: biochemical
# T1 construct: tissue Eurofins Cerep; host or cells: rat hypothalamus synaptosomes (own knowledge of the vendor's assay)
# T1 sequence (Q63380 1-617): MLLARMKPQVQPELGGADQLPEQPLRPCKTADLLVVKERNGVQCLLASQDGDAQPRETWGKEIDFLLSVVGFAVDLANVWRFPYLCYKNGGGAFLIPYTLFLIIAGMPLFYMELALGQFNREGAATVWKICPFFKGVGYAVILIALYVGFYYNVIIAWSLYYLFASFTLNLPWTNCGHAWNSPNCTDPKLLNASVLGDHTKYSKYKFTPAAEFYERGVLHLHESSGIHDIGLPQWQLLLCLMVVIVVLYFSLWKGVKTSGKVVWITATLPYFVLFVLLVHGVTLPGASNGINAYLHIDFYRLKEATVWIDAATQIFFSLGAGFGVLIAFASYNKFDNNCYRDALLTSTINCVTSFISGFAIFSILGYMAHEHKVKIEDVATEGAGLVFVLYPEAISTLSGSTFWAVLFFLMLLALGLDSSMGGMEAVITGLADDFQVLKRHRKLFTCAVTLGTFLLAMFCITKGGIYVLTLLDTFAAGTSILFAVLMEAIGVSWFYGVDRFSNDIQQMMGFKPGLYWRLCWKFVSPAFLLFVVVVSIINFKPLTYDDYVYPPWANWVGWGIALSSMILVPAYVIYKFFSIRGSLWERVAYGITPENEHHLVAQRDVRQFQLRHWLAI
# [14] = Novelty-suppressed feeding test (NSFT); format: in vivo; settings: rat; 72 hr after single dose; ketamine 10 mg/kg ip, d-methadone 20 mg/kg sc
# [15] = test system: testosterone; assay: Serum testosterone levels in male MAD 25 mg subjects; format: in vivo, human; settings: for Testosterone Levels, individual male subjects: hydrochloride
# [16] = Forced swim test; format: in vivo, rat; settings: for Immobility, Mean frequency / Swimming, Mean frequency: single administration 24 hours prior, 60 counts per subject; for Immobility, Mean Diff. (Fisher's PLSD) / Swimming, Mean Diff. (Fisher's PLSD): Vehicle minus treatment
# [17] = human, in vivo
# [18] = test system: BDNF; assay: BDNF levels (ELISA) in MAD study subjects; format: in vivo, human; settings: for BDNF, individual subjects: hydrochloride
# [19] = rat, 24 h after dosing, one-way ANOVA
compound,measurement,setting,value
CCC(=O)C(C[C@H](C)N(C)C)(c1ccccc1)c1ccccc1 [d-methadone],FUST: time sniffing water,[1],no effect
same,FUST: time spent sniffing female urine vs vehicle,[1],increased
same,AUC(0-inf),[2]; 25 mg,13000 ng·h/mL
same,Tmax,"[2]; 25 mg, Tmax",2.35 h
same,AUC(0-inf),[2]; 50 mg,32000 ng·h/mL
same,Cmax,[2]; 50 mg,587 ng/mL
same,AUC(0-inf),[2]; 75 mg,28900 ng·h/mL
same,Cmax,[2]; 75 mg,563 ng/mL
same,Tolerability,[3],well tolerated
same,"Distance traveled min 1-5, Mean",[4]; 10 mg/kg,597.167
same,"Rearing min 1-5, Mean",[4]; 10 mg/kg,26.333
same,"Total Distance Traveled, Mean",[4]; 10 mg/kg,2605.500 cm/60 min
same,"Total Rearing, Mean",[4]; 10 mg/kg,119.167
same,"Distance traveled min 1-5, Mean",[4]; 20 mg/kg,556.833
same,"Rearing min 1-5, Mean",[4]; 20 mg/kg,28.667
same,"Total Distance Traveled, Mean",[4]; 20 mg/kg,2060.667 cm/60 min
same,"Total Rearing, Mean",[4]; 20 mg/kg,100.167
same,"Distance traveled min 1-5, Mean",[4]; 40 mg/kg,447.500
same,"Rearing min 1-5, Mean",[4]; 40 mg/kg,17.333
same,"Total Distance Traveled, Mean",[4]; 40 mg/kg,1773.000 cm/60 min
same,"Total Rearing, Mean",[4]; 40 mg/kg,75.000
same,Locomotor activity: total distance traveled (60 min),[4]; [19],no significant effect
same,Locomotor activity: total rearing frequency (60 min),[4]; [19],no significant effect
same,Patients with 3MS improvement by at least one point,[5],five out of six
same,Mean serum glucose change vs baseline,[6]; day 10,−0.08 mmol/I
same,Mean serum glucose change vs baseline,[6]; day 12,−0.43 mmol/I
same,"serum glucose, individual subjects",[6]; Day-10,3.2 mmol/I and 4.9 mmol/I
same,"serum glucose, individual subjects",[6]; Day-12,4.9 mmol/I (3×) and 4.1 mmol/I
same,AUC(0-inf),[7]; 5 mg,1190 ng·h/mL
same,AUC(0-t),"[7]; 5 mg, AUC0-24, SAD 5 mg, mean",675 ng·h/mL
same,AUC(0-t),"[7]; 5 mg, AUC0-last, SAD 5 mg, mean",1250 ng·h/mL
same,Cmax,"[7]; 5 mg, median, SAD 5 mg",48.4 ng/mL
same,AUC(0-inf),[7]; 20 mg,6230 ng·h/mL
same,AUC(0-t),"[7]; 20 mg, AUC0-24, SAD 20 mg, mean",2310 ng·h/mL
same,AUC(0-t),"[7]; 20 mg, AUC0-last, SAD 20 mg, mean",4620 ng·h/mL
same,Cmax,"[7]; 20 mg, SAD 20 mg, mean",163 ng/mL
same,AUC(0-inf),[7]; 60 mg,14100 ng·h/mL
same,AUC(0-t),"[7]; 60 mg, AUC0-24, SAD 60 mg, mean",5540 ng·h/mL
same,AUC(0-t),"[7]; 60 mg, AUC0-last, SAD 60 mg, mean",13600 ng·h/mL
same,Cmax,"[7]; 60 mg, SAD 60 mg, mean",404 ng/mL
same,AUC(0-inf),[7]; 100 mg,31100 ng·h/mL
same,AUC(0-t),"[7]; 100 mg, AUC0-24, SAD 100 mg, mean",10700 ng·h/mL
same,AUC(0-t),"[7]; 100 mg, AUC0-last, SAD 100 mg, mean",29700 ng·h/mL
same,Cmax,"[7]; 100 mg, SAD 100 mg, mean",739 ng/mL
same,AUC(0-inf),[7]; 150 mg,32600 ng·h/mL
same,AUC(0-t),"[7]; 150 mg, AUC0-24, SAD 150 mg, mean",14600 ng·h/mL
same,AUC(0-t),"[7]; 150 mg, AUC0-last, SAD 150 mg, mean",37200 ng·h/mL
same,Cmax,"[7]; 150 mg, SAD 150 mg, mean",1060 ng/mL
same,AUC(0-t),"[7]; 200 mg, AUC0-24, SAD 200 mg, n=1",20700 ng·h/mL
same,AUC(0-t),"[7]; 200 mg, AUC0-last, SAD 200 mg, n=1",67700 ng·h/mL
same,Cmax,"[7]; 200 mg, SAD 200 mg, n=1",1530 ng/mL
same,Number of doses to steady state,[8],6-7 doses
same,AUCtau,[8]; 25 mg,4392 ng·h/mL
same,AUCtau,[8]; 50 mg,"10,147 h*ng/mL"
same,AUCtau,[8]; 75 mg,"10,537 h*ng/mL"
same,IC50,[9],0.12 µM
same,mean weight gain baseline to day 15,[10]; 10 mg/kg s.c. once daily 15 days,41 grams
same,mean weight gain baseline to day 15,[10]; 20 mg/kg s.c. once daily 15 days,36 grams
same,Body weight gain vs vehicle-treated animals,[10]; 40 mg/kg S.C. once daily for 15 days,lower weight gain
same,mean weight gain baseline to day 15,[10]; 40 mg/kg s.c. once daily 15 days,22 grams
same,Greatest mean pupillary constriction (MPC),"[11]; MAD 25 mg, Day 9",−1.32 (0.553) mm
same,Greatest mean pupillary constriction (MPC),"[11]; MAD 50 mg, Day 6",−1.43 (0.175) mm
same,Greatest mean pupillary constriction (MPC),"[11]; MAD 75 mg, Day 5",−2.24 (0.619) mm
same,TEAE: any event,"[12]; both, human",5 n (%) [number of events]
same,TEAE: dizziness,"[12]; both, human",1 n (%) [number of events]
same,Tolerability,[12],well tolerated
same,IC50,[13],8.2 µM
same,"norepinephrine uptake, % inhibition",[13]; 1.0E−05 M,61.6%
same,Inhibition of norepinephrine uptake by NET,[13]; […],significant inhibition
same,NSFT: latency to eat in a novel open field,[14],significantly decreased
same,Testosterone serum levels,"[15]; 25 mg once per day for ten days, three male subjects",increased
same,"Testosterone Levels, individual male subjects","[15]; Day 6, 25 mg once a day for 10 days",13.1 nmol/L
same,"Testosterone Levels, individual male subjects","[15]; Day 12, 25 mg once a day for 10 days",14.4 nmol/L and 10.1 nmol/L
same,"Testosterone Levels, individual male subjects","[15]; Follow Up (Day 18 ± 1), 25 mg once a day for 10 days",9.6 nmol/L and 13.6 nmol/L and 8.1 nmol/L
same,"Testosterone Levels, individual male subjects","[15]; Screening (Day −1), baseline, normal range 7.6-31.4",7.4 nmol/L and 9.2 nmol/L and 4.1 nmol/L
same,"Immobility, Mean frequency",[16]; 10 mg/kg,31.400
same,"Swimming, Mean frequency",[16]; 10 mg/kg,20.200
same,"Immobility, Mean frequency",[16]; 20 mg/kg,23.556
same,"Swimming, Mean frequency",[16]; 20 mg/kg,32.667
same,"Immobility, Mean frequency",[16]; 40 mg/kg,23.200
same,"Swimming, Mean frequency",[16]; 40 mg/kg,26.200
same,"Immobility, Mean Diff. (Fisher's PLSD)",[16]; 10 mg/kg,17.600
same,"Swimming, Mean Diff. (Fisher's PLSD)",[16]; 10 mg/kg,−12.978
same,"Immobility, Mean Diff. (Fisher's PLSD)",[16]; 20 mg/kg,25.444
same,"Swimming, Mean Diff. (Fisher's PLSD)",[16]; 20 mg/kg,−25.444
same,"Immobility, Mean Diff. (Fisher's PLSD)",[16]; 40 mg/kg,25.800
same,"Swimming, Mean Diff. (Fisher's PLSD)",[16]; 40 mg/kg,−18.978
same,Maximum QTcF interval observed,[17]; both,462 ms
same,Model-predicted ΔΔQT effect at geometric mean plasma concentration,[17]; both,16.0 to 21.0 ms
same,"QTc, individual prolonged value",[17]; male,434 ms
same,Subjects with increase in BDNF levels post treatment vs pre-treatment,[18]; 25 mg a day for ten days,6 of 6
same,BDNF serum levels,"[18]; 25 mg, healthy volunteers",significantly increases
same,BDNF levels after treatment vs pre-treatment,"[18]; 50 mg and 75 mg doses, not statistically significant against placebo",consistently showed an increase
same,"BDNF, individual subjects","[18]; Day 2 hr 4, 25 mg a day oral",BDNF 3.603 ng/L; also recorded: BDNF 2.529 ng/L; also recorded: BDNF 2.038 ng/L; also recorded: BDNF 1.862 ng/L; also recorded: BDNF 8.995 ng/L; also recorded: BDNF 2.750 ng/L
same,"BDNF, individual subjects","[18]; Day 6 hr 4, 25 mg a day oral",4.820 ng/mL and 2.920 ng/mL and 2.348 ng/mL and 2.458 ng/mL and 3.790 ng/mL
same,"BDNF, individual subjects","[18]; Day 10 hr 4, 25 mg a day oral",4.004 ng/mL and 10.697 ng/mL and 2.853 ng/mL and 4.347 ng/mL and 5.459 ng/mL and 3.733 ng/mL
same,"BDNF, individual subjects","[18]; Pre-Treatment (baseline), MAD 25 mg subjects",1.143 ng/mL and BDNF 0.612 ng/mL and 0.376 ng/mL and 0.460 ng/mL and 0.497 ng/mL and 1.922 ng/mL
same,BDNF_T0 Mean,"[18]; baseline, w/o placebo, N 6",.83100 ng/mL
same,BDNF_D2 Mean,"[18]; day 2, 25 mg a day, w/o placebo, N 6",3.63 ng/mL
same,BDNF_D6 Mean,"[18]; day 6, 25 mg a day, w/o placebo, N 5",3.267 ng/mL
same,BDNF_D10 Mean,"[18]; day 10, 25 mg a day, w/o placebo, N 6",5.182 ng/mL
